In US6350747B1, “3-(anilinomethylene) oxindoles” (Glaxo Wellcome Inc., priority 1999, dated 2002):
pIC50: −log10 of the molar value. Where two headings read alike, the source gives them in different places.

Legend:
VEGFR-2 = target: T1, VEGFR-2 (Homo sapiens, UniProt P35968); experiment: VEGFR-2 substrate phosphorylation assay; type: biochemical
T1 construct: The kinase domain of the enzyme was purified to homogeneity from a baculovirus expression system; made in house

Tie-2 = target: T2, Tie-2 (Homo sapiens, UniProt Q02763); experiment: Tie-2 substrate phosphorylation assay; type: biochemical
T2 construct: The kinase domain of the enzyme was purified to homogeneity from a baculovirus expression system; made in house
T2 sequence (Q02763 824-1096 limits assumed, species assumed): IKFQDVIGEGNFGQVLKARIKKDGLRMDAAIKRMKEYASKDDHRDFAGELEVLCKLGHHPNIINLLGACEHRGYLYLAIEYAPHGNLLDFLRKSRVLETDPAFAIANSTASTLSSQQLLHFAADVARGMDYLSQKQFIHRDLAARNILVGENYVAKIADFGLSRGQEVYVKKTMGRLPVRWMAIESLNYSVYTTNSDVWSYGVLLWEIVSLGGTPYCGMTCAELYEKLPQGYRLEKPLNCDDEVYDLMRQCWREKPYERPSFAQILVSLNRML

HUVEC cells [1] = experiment: HUVEC BrdU incorporation, VEGF stimulation; type: cell-based; conditions: Homo sapiens, 20 ng/ml VEGF, 72 hrs, read-out: Inhibition of BrdU incorporation in HUVEC cells, VEGF stimulation, IC50
HUVEC cells [2] = experiment: HUVEC BrdU incorporation, bFGF stimulation; type: cell-based; conditions: Homo sapiens, 0.3 ng/ml bFGF, 72 hrs, read-out: Inhibition of BrdU incorporation in HUVEC cells, BFGF Stimulation, IC50
CDK2 = target: T3, CDK2 (Homo sapiens, UniProt P24941); experiment: CDK2 cyclin dependent protein kinase assay; type: biochemical; conditions: read-out: CDK2 kinase inhibition IC50
T3 construct: made in house
Protocol: Cyclin dependent protein kinase assays utilized the peptides Biotin-aminohexyl-[…] and Biotin-aminohexyl-[…]-NH2 as phosphoryl group acceptors. CDK1 and CDK2 were both expressed utilizing a baculovirus expression system and were partially purified to comprise 20-80% of total protein, with no detectable competing reactions present. Typically, assays were performed by incubating either enzyme (0.2-10 nM), with and without inhibitor, one of the two peptide substrates ([…]), [γ-^32P]ATP ([…]), and 10-20 mM Mg^2+ for periods of time generally within the range 10-120 min. Reactions were terminated with 0.2-2 volumes of either 20% acetic acid or 50-100 mM EDTA buffered to pH 7 (substrate consumption<20%). The buffer employed in enzyme assays was either 30 mM HEPES 7.4 containing 0.15 M NaCl and 5% DMSO, the buffer 50 mM MOPS 7.0 containing 0.15 M NaCl and 5% DMSO, or the buffer 100 mM HEPES pH 7.5 containing 0.1 mg/mL BSA and 5% DMSO. Inhibitors were diluted in 100% DMSO prior to addition into the assay. Detection of peptide phosphorylation was accomplished by scintillation counting following either collection of peptide onto phosphocellulose filters (for reactions stopped with acetic acid), collection of peptide in wells of 96 well plates coated with Streptavidin (Pierce) (reactions were stopped with EDTA), or addition of Avidin coated Scintillant impregnated beads (Scintillation Proximity Assays from Amersham, reactions were stopped with EDTA).

c-fms = target: T4, c-fms (Homo sapiens, UniProt P07333); experiment: c-fms protein kinase assay; type: biochemical; conditions: read-out: c-fms kinase inhibition IC50
T4 construct: The c-fms intracellular domain was expressed from a baculovirus expression system, as an amino-terminal GST fusion protein; GST (N); made in house
T4 sequence (P07333 539-972 limits assumed): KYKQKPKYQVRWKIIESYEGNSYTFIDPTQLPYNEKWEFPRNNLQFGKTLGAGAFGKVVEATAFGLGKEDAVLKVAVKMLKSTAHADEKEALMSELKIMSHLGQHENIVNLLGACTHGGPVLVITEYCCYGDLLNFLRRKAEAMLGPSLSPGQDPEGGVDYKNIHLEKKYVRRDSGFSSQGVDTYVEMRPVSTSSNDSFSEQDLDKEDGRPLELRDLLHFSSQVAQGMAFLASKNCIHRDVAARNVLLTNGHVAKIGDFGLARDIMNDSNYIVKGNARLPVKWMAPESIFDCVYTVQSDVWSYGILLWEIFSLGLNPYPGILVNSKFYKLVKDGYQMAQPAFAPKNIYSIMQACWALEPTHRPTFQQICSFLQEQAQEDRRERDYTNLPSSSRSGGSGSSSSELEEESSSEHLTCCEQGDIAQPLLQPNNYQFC
Protocol: c-fms protein kinase assays utilized the peptide substrate, biotin-EAl[…]-NH2, as the phosphoryl group acceptor. The c-fms intracellular domain was expressed from a baculovirus expression system, as an amino-terminal GST fusion protein, and purified to homogeneity using Glutathione agarose from Sigma Chemical Co. Maximum activation of the enzyme was achieved by preactivation at room temperature for 120 min in the presence of 100 μM ATP and 15 mM MgCl2. This enzyme stock was diluted to 150 nM prior to using in the assay. Typically assays were performed in white, opaque, 96-well plates in a 45 ul assay volume including 15 ul 6% DMSO, with or without compounds, 15 ul of the preactivated, diluted enzyme, and 15 ul of a substrate mixture. Reactions contained 50 mM HEPES, pH 7.5, 1.7 μM ATP, 15 mM MgCl2, […] peptide, 2.5 μM DTT, 50 mM NaCl and 0.15 uCi/assay [^32P]ATP. The controls were reactions in the presence (negative controls) or absence (positive controls) of 50 mM EDTA. Reactions were allowed to proceed for 90 min at room temperature. The reaction products were quantified using Scintillation Proximity technolgy. The reactions were quenched by the addition of 200 ul of a solution containing 0.3 mg streptavidin SPA beads from Amersham, 50 mM EDTA, 0.1% TX-100, 50 uM ATP, in PBS, pH7.2 (phosphate buffered solution). Plates were sealed and counted in a Packard Topcount scintillation counter. IC50 values were obtained by fitting raw data to the equation y=Vmax*(1−(x/(k+x))).

[3] = read-out: VEGFR2 kinase inhibition IC50
[4] = read-out: Tie-2 kinase inhibition IC50

T1 sequence (P35968 834-1162 limits assumed, species assumed): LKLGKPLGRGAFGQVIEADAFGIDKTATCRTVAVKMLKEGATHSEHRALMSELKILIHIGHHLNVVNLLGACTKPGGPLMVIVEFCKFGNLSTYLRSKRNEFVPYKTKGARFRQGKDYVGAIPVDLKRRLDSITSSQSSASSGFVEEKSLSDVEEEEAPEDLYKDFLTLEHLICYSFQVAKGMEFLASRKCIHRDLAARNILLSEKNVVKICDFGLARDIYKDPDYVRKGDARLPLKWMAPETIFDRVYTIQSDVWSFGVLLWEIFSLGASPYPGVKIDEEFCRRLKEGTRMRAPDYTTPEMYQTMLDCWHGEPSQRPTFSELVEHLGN

pIC50 (VEGFR-2; [3])	pIC50 (CDK2)	pIC50 (Tie-2; [4])	pIC50 (c-fms)	Compound	pIC50 (VEGFR-2)	pIC50 (Tie-2)	pIC50 (HUVEC cells [1])	pIC50 (HUVEC cells [2])
–	–	–	–	CCN(CC)CCS(=O)(=O)c1ccc(N/C=C2\C(=O)Nc3ccc4ncccc4c32)cc1 [Example 72, 1-[(Z)-(4-{[2-(Diethylamino)ethyl]sulfonyl}anilino)methylidene]-1H-pyrrolo[3,2-f]quinolin-2(3H)-one]	8.00 to 9.00	< 7.00	6.30 to 8.00	6.30 to 8.00
8.00 to 9.00	7.30 to 7.96	< 7.00	< 7.00	Cc1cc(=O)[nH]n1-c1ccc(N/C=C2\C(=O)Nc3ccc4ncsc4c32)cc1 [Example 55, 8-{(Z)-[4-(5-Methyl-3-oxo-2,3-dihydro-1H-pyrazol-1-yl)anilino]methylidene}-6H-[1,3]thiazolo[5,4-e]indol-7-one]	–	–	5.30 to 5.96	< 5.30
7.30 to 7.96	7.00 to 7.29	< 7.00	–	O=C1Nc2ccc3ncccc3c2/C1=C/Nc1ccc(CCO)cc1 [Example 32, 1-{(Z)-[4-(2-Hydroxyethyl)anilino]methylidene}-1,3-dihydro-2H-pyrrolo[3,2-f]quinolin-2-one]	–	–	6.30 to 8.00	5.30 to 5.96
8.00 to 9.00	–	< 7.00	–	Cc1cc(=O)[nH]n1-c1ccc(N/C=C2\C(=O)Nc3ccc4ncccc4c32)cc1 [Example 66, 1-{(Z)-[4-(5-Methyl-3-oxo-2,3-dihydro-1H-pyrazol-1-yl)anilino]methylidene}-1H-pyrrolo[3,2-f]quinolin-2(3H)-one]	–	–	6.00 to 6.22	< 5.30
7.30 to 7.96	< 7.00	< 7.00	< 7.00	O=C1Nc2ccc3ncccc3c2/C1=C/Nc1ccc(N2CCOCC2)cc1 [Example 29, 1-{(Z)-[4-(4-Morpholinyl)anilino]methylidene}-1,3-dihydro-2H-pyrrolo[3,2-f]quinolin-2-one]	–	–	6.30 to 8.00	< 5.30
7.30 to 7.96	–	< 7.00	–	CC(=O)N(C)c1ccc(N/C=C2\C(=O)Nc3ccc4ncsc4c32)cc1 [Example 58, N-Methyl-N-(4-{(Z)-[(7-oxo-6,7-dihydro-8H-[1,3]thiazolo[5,4-e]indol-8-ylidene)methyl]amino}phenyl)acetamide]	–	–	6.30 to 8.00	5.30 to 5.96
8.00 to 9.00	–	< 7.00	–	CCC1(c2ccc(N/C=C3\C(=O)Nc4ccc5ncccc5c43)cc2)CCC(=O)NC1=O (stereo not drawn) [Example 63, 3-Ethyl-3-(4-{(Z)-[(2-oxo-2,3dihydro-1H-pyrrolo[3,2-f]quinolin-1-ylidene)methyl]amino}phenyl)-2,6-piperidinedione]	–	–	6.30 to 8.00	6.00 to 6.22
7.30 to 7.96	7.30 to 7.96	< 7.00	< 7.00	O=C1Nc2ccc3ncccc3c2/C1=C/Nc1ccc(Cc2ccncc2)cc1 [Example 30, 1-{(Z)-[4-(4-Pyridinylmethyl)anilino]methylidene}-1,3-dihydro-2H-pyrrolo[3,2-f]quinolin-2-one]	–	–	6.30 to 8.00	5.30 to 5.96
7.30 to 7.96	–	< 7.00	–	CCN(CC)CCS(=O)(=O)c1ccc(N/C=C2\C(=O)Nc3ccc4ncsc4c32)cc1 [Example 71, 8-[(Z)-(4-{[2-(Diethylamino)ethyl]sulfonyl}anilino)methylidene]-6H-[1,3]thiazolo[5,4-e]indol-7-one]	–	–	6.30 to 8.00	6.30 to 8.00
8.00 to 9.00	–	< 7.00	< 7.00	CCC1(c2ccc(N/C=C3\C(=O)Nc4ccc5ncsc5c43)cc2)CCC(=O)NC1=O (stereo not drawn) [Example 48, 3-Ethyl-3-(4-{(Z)-[(7-oxo-6,7dihydro-8H-[1,3]thiazolo[5,4-e]indol-8-ylidene)methyl]amino}phenyl)-2,6-piperidinedione]	–	–	6.30 to 8.00	6.00 to 6.22

Compound	pIC50 (VEGFR-2; [3])	pIC50 (CDK2)	pIC50 (Tie-2; [4])	pIC50 (c-fms)	pIC50 (VEGFR-2)	pIC50 (Tie-2)	pIC50 (HUVEC cells [1])	pIC50 (HUVEC cells [2])
NC(=O)c1ccc(N/C=C2\C(=O)Nc3ccc4ncsc4c32)cc1 [Example 24, 4-{[(Z)-(7-Oxo-6,7-dihydro-8H-[1,3]thiazolo[5,4-e]indol-8-ylidene)methyl]amino}benzamide]	–	7.00 to 7.29	< 7.00	< 7.00	7.30 to 7.96	–	6.30 to 8.00	< 5.30
